Data from article PMC6268831 (Molecules, 2012).

How the values were obtained:
[1] = tested on: rat thymocytes; assay: Cell viability of rat thymocytes by CCK-8 assay; format: cell-based; details: 24 h, absorbance ratio to control cells, mean ± SD
Description: (§1) Experiments were performed on adult male Wistar rats (150−180 g), 8−10 weeks old, bred at the Vivarium of the Institute of Biomedical Research, Medical Faculty, Nis, Serbia, under conventional laboratory conditions and in accordance with national animal protection guidelines.
(§2) Rat thymocytes were isolated as described previously. The viability of the isolated cells, as determined by trypan blue dye exclusion test, was always over 95%. Isolated thymocytes were counted and adjusted to a density of 5 × 10^6 cells/mL of CM.
(§3) Isolated thymocytes were cultivated in 96-well round-bottom plates (NUNC, Aarhus, Denmark), containing a 100 µL of cell suspension (5 × 10^5 cells) in each well. […] Control samples were cultured in CM, with appropriate amounts of 96% ethanol (9.6%). Concentrations of tested substances used in our study were adopted from our previous report, regarding the effect of different compounds on thymocytes toxicity. All cell cultures were done in triplicates and cultivated for 24 h in an incubator (Galaxy, Wolf Laboratories, Pocklington, UK) with 5% CO2 at 37 °C.
Cell viability of rat thymocytes, after cultivation period, was evaluated by CCK-8 assay as was previously described. Ten µL of reaction mixture was added in each well. After 2 h of incubation, the solubilized formazan product was quantified spectrophotometrically, by using a microplate reader Perkin-Elmer (Wallac Victor^2V, Turku, Finland). Absorbance was measured at 450 nm. For each sample, basal intensity values were subtracted from those obtained after different treatments. Absorbances were presented as ratio for comparison with control samples.

[2] = tested on: human acute monocytic leukemia cell line (THP-1); details: tested as essential oil, lower concentrations than in this study, trypan blue viability assay; cited from earlier work
[3] = tested on: rat thymocytes; assay: Mitochondrial membrane potential of rat thymocytes (Rhodamine 123 uptake); format: cell-based; details: 24 h, ratio of mean fluorescence intensity to control, mean ± SD
Description: Experiments were performed on adult male Wistar rats (150−180 g), 8−10 weeks old, bred at the Vivarium of the Institute of Biomedical Research, Medical Faculty, Nis, Serbia, under conventional laboratory conditions and in accordance with national animal protection guidelines. Rat thymocytes were isolated as described previously. The viability of the isolated cells, as determined by trypan blue dye exclusion test, was always over 95%. Isolated thymocytes were counted and adjusted to a density of 5 × 10^6 cells/mL of CM. […] Control samples were cultured in CM, with appropriate amounts of 96% ethanol (9.6%). Concentrations of tested substances used in our study were adopted from our previous report, regarding the effect of different compounds on thymocytes toxicity. All cell cultures were done in triplicates and cultivated for 24 h in an incubator (Galaxy, Wolf Laboratories, Pocklington, UK) with 5% CO2 at 37 °C. […] The fluorescence of intracellular Rhodamine 123 (excitation 485 nm; emission 530 nm) was measured by Perkin-Elmer fluorimeter, as published earlier. For each sample, basal fluorescence intensity values were subtracted from those obtained after different treatments and results were presented as ratio of mean fluorescence intensity (MFI).

[4] = tested on: rat thymocytes; assay: Intracellular ROS production in rat thymocytes (H2DCF-DA probe); format: cell-based; details: 24 h, ratio of mean fluorescence intensity to control, mean ± SD
Description: as §1, §2, §3
A redox-sensitive probe (H2DCF-DA) was used to determine changes in overall cellular ROS levels, as described previously. The change in fluorescence (excitation 485 nm; emission 530 nm) was measured using a Perkin-Elmer fluorimeter (Wallac Victor^2V). For each sample, basal fluorescence intensity values were subtracted from those obtained after different treatments and results were presented as ratio of mean fluorescence intensity (MFI).

| SMILES | Cytotoxicity (CCK-8 assay) ([1]; 0.5 µg/mL) | Cytotoxicity (CCK-8 assay) ([1]; 5 µg/mL) | Cytotoxicity (CCK-8 assay) ([1]; 50 µg/mL) | Toxic effect on THP-1 cells [2] | Mitochondrial membrane potential ([3]; 0.5 µg/mL) | Mitochondrial membrane potential ([3]; 5 µg/mL) | Mitochondrial membrane potential ([3]; 50 µg/mL) | Intracellular ROS production ([4]; 0.5 µg/mL) | Intracellular ROS production ([4]; 5 µg/mL) | Intracellular ROS production ([4]; 50 µg/mL) |
| --- | --- | --- | --- | --- | --- | --- | --- | --- | --- | --- |
| CC12CCC(CC1=O)C2(C)C (stereo not shown) [Camphor, 4,7,7-trimethylbicyclo[2.2.1]heptan-3-one] | 0.927 ± 0.132 | 1.024 ± 0.083 | 1.111 ± 0.033 | no significant toxic effect | 0.740 ± 0.071 | 0.919 ± 0.047 | 0.925 ± 0.132 | 1.413 ± 0.068 | 1.399 ± 0.093 | 1.251 ± 0.049 |
| CC1(C)C2CCC1(C)C(O)C2 (stereo not shown) [Borneol, 4,7,7-trimethylbicyclo[2.2.1]heptan-3-ol] | 1.067 ± 0.004 | 1.070 ± 0.015 | 0.975 ± 0.144 |  | 0.799 ± 0.022 | 0.856 ± 0.084 | 0.876 ± 0.110 | 1.268 ± 0.102 | 1.224 ± 0.108 | 1.164 ± 0.191 |
